Experimental data as given in US20150359884A1, “MULTI-PHOTON ISOMERISATION OF COMBRETASTATINS AND THEIR USE IN THERAPY” (priority 2011, published 2015).

Experiments:
[1] = Fluorescence lifetimes in solvents, two-photon excitation with TCSPC; type: physicochemical
Protocol: Fluorescence lifetimes were determined using 2PE at 630 nm with the microscope TCSPC setup (overall time response of 25 ps fwhm) and produced the results shown in Table 1. […] Characterisation of the spectroscopic properties of these latter two compounds remains to be investigated further. […] In the very viscous environment provided by glycerol the lifetime increases further to 1180 ps. In the range of alkanols studied the lifetime is closely correlated with solvent viscosity as shown in the inset to FIG. 3. […] However it is clear that the measured lifetime has the potential to report on cellular environments in FLIM studies. For E-CA4F similar trends are observed, but the overall differences in both lifetimes and quantum yields over the range of solvents are rather less than for E-CA4. The fluorescence lifetimes of E-CA4F are confined to a narrower range having values ranging from 440 ps in methanol through 740 ps in hexane to 1070 ps in glycerol. The more pronounced solvent dependence for E-CA4 no doubt reflects the more polar nature of the molecule compared with E-CA4F. The relative polarities may be judged from the partition coefficients (P) calculated according to the method of Brown et al..

[2] = test system: HeLa cells; assay: Fluorescence lifetime imaging (FLIM) of uptake and intracellular concentration in HeLa cells
Protocol: Both HeLa and Chinese hamster ovary (CHO) cells were obtained from the European Collection of Cell Cultures. HeLa cells were cultured in MEM medium (Gibco) containing 10% foetal calf serum, penicillin (100 units/mL), streptomycin (100 μg/mL) and glutamine (2 mM). CHO cells were cultured in DMEM (Gibco) with the same additions as for the HeLa cells. For microscopy the adherent cell cultures were grown in 35 mm diameter glass-bottom culture dishes with optical quality glass (MatTek Corporation) and incubated at 37° C. in a humidified atmosphere containing 5% CO2. Human umbilical vein endothelial cells (HUVECs) were obtained from TCS Cellworks. HUVECs were sub-cultured in basal medium (TCS Cellworks) supplemented with antibiotic supplement/amphotericin-B, following the detailed guidelines provided by TCS Cellworks.
The fluorescence lifetime imaging system with multiphoton excitation employed lasers for multiphoton excitation consisting of a Ti:Sapphire laser, tuneable between 700 and 1000 nm and providing ca 180 fs pulses at 76 MHz, and an optical parametric oscillator (OPO) pumped by a second Ti:Sapphire laser source. Using the doubled idler output of the OPO, useful energies (>200 mW) could be obtained between 550 and 640 nm. Samples were excited on the stage of Nikon TE2000U inverted microscope using a water immersion ×60 objective of NA 1.2. Using the various microscope ports it was possible to record the fluorescence in a number of ways. The fluorescence signal at one port was relayed to a spectrometer (Acton 275) and CCD setup (Andor iDUS) so that emission spectra and intensities could be recorded. Alternatively the fluorescence signal could be routed via a second port to a time-correlated single photon counting (TCSPC) system (Becker and Hickl SPC-830) allowing fluorescence lifetime measurements and fluorescence lifetime imaging (FLIM), using Becker and Hickl software (SPCImage) for analysis. In FLIM mode the fluorescence was isolated by a suitable narrowband interference filter (400IU25 together with BG3 (Comar)). […] Two photon cross sections were determined using a reference fluorophore as a two photon standard as described by Mathai et al., employing published values of the two-photon cross section for 9-chloroanthracene.
Images of intracellular distribution of E-combretastatins in cell monolayers were obtained using fluorescence lifetime imaging, in which the rastered excitation laser beam dwells on each pixel for a few milliseconds and at each position records a nanosecond fluorescence lifetime decay curve using the time-correlated single photon counting method. […]
Quantification of fluorophore concentration from intensity measurements is often difficult.

[3] = Two-photon absorption cross section using reference fluorophore 9-chloroanthracene; type: physicochemical; details: at 620 nm, DCM
Source text: (§1) Cell images were overlaid using Adobe Photoshop CS3.
Published cross sections for two photon absorption (σ2, the probability of an absorption process or photon interaction) typically show large variations depending on the method of measurement, using either the Z-scan method or a reference fluorophore, and the power range and pulse duration of the laser used for excitation. We have attempted to determine values of σ2 for E-CA4 and E-ACA4 using a reference fluorophore. 9-Chloroanthracene (9CIA) was selected as a standard fluorophore with an appropriate fluorescence spectrum and for which 2PE cross-sections are available. The values of σ2 at 620 nm for E-CA4 and E-CA4F in DCM were determined to be 2.1±0.5 and 2.75±0.6 GM units respectively. […] Values of σ2 at 620 nm for E-ACA and E-DMAC were both 5.7±1.2. These larger values may be consistent with some charge transfer character of the excitation of these compounds.

[4] = Fluorescence quantum yields in solvents, UV one-photon excitation; type: physicochemical; details: 20° C., 290-300 nm excitation
Protocol: Absorption spectra were measured in either a Perkin Elmer Lambda 25 or 950 spectrophotometer. Fluorescence measurements were made with either a Spex Fluoromax or Varian Cary Eclipse spectrofluorimeter using the spectral correction curves supplied by the manufacturers. Fluorescence quantum yields with UV (one-photon) excitation were determined using either 2-aminopyridine (Φref 0.6 [7]) or 9-chloroanthracene (Φref 0.50 in dichloromethane, determined here relative to 9,10-diphenylanthracene in cyclohexane (Φref 0.97) and anthracene in ethanol (Φref 0.28 [8]) as standards. Fluorescence quantum yields were determined from the relative slopes of plots of integrated fluorescence intensity versus (1-10^−A) for samples having absorbance A≦0.1. The square of the refractive index (n^2) correction was applied when sample and reference compounds were in different solvents. Irradiation of the samples was minimized by the use of narrow excitation slits to reduce simultaneous photoisomerization.
The fluorescence quantum yields for E-CA4F were generally somewhat higher than for E-CA4.

[5] = test system: human umbilical vein endothelial cells (HUVECs); assay: Fluorescence lifetime imaging (FLIM) of uptake and intracellular concentration in HUVECs; type: cell-based
Source text: as §1
Z-CA4 and analogues exert their anticancer activity by preventing the process of angiogenesis in which a growing tumour is supplied with new vasculature for the supply of nutrients via the bloodstream. We have therefore studied interactions between combretastatins and cultured HUVECs. […] Nevertheless it was possible to obtain images of cells after uptake upon E-combretastatin addition to the supporting medium at relatively low concentrations. […] In addition there are some punctate structures apparent in the images that appear to correlate with lipid droplets identified by Nile Red staining of the same cell. At 37° C. exact co-localization of the sequential images of combretastatin fluorescence and Nile Red labelled lipid droplets, obtained using the two different imaging systems attached to the microscope, is not possible because of the Brownian motion and the occasional rapid saltation of these structures that occur as a result of their transport upon the cellular microtubule network. The fluorescence lifetime distribution of intracellular E-CA4F observed in this cell simultaneously labelled with Nile Red peaks at ˜950 ps. […] This confirms that Nile Red and E-CA4F exist in the same space and are able to come close enough to allow FRET. The long lifetime of E-CA4F fluorescence in the HUVEC cell indicates a viscous environment for E-CA4F within the cell which is consistent with a lipidic location such as a membrane or lipid droplet. Since the fluorescence lifetimes and quantum yields of E-CA4F are directly related, it is possible to combine the FI and lifetime images to calculate the concentration distribution, using a series of standard solutions (DMSO was the chosen solvent with τ 810 ps). […] It is therefore clear that E-CA4F (and other compounds in FIG. 10) are taken up by their target endothelial cell and accumulated by up to 200 times the extracellular concentration of the compound. Similar images have been obtained that show corresponding uptake of E-CA4F within HUVECs from solutions containing as little as 1 μM E-CA4F.

[6] = DMSO, 20° C., two-photon excitation 620-630 nm
[7] = DCM, 20° C., two-photon excitation 620-630 nm, ne = non-exponential
[8] = EtOH, 20° C., two-photon excitation 620-630 nm, ne = non-exponential
[9] = Ethylene glycol, 20° C., two-photon excitation 620-630 nm, ne = non-exponential
[10] = Hexane, 20° C., two-photon excitation 620-630 nm
[11] = MeCN, 20° C., two-photon excitation 620-630 nm, ne = non-exponential
[12] = MeOH, 20° C., two-photon excitation 620-630 nm, ne = non-exponential
[13] = HUVEC, 5 μM in medium, 37° C., 60 min

Row | Compound | Fluorescence lifetime τ [1, 6] | Two photon absorption cross section σ2 [3] | Fluorescence lifetime τ [1, 7] | Fluorescence lifetime τ [1, 8] | Fluorescence lifetime τ [1, 9] | Fluorescence lifetime τ [1, 10] | Fluorescence lifetime τ [1, 11] | Fluorescence lifetime τ [1, 12] | Fluorescence quantum yield φ ([4]; DCM) | also measured
1 | COc1cc(C=Cc2ccc(C#N)cc2)cc(OC)c1OC [E-CNCA4, 4-[2-(3,4,5-trimethoxyphenyl)vinyl]benzonitrile] | 0.71 ns | – | – | – | – | – | – | – | – | Intracellular distribution [2]: accumulates mainly within the cell cytoplasm and is excluded from the cell nucleus
2 | COc1ccc(/C=C/c2cc(OC)c(OC)c(OC)c2)cc1F [E-CA4F, (E)-1-(3′,4′,5′-trimethoxyphenyl)-2-(3″-fluoro-4″-methoxyphenyl)ethene] | 0.81 ns | 2.75±0.6 GM units | 0.61 ns | 0.48 ns | 0.76 ns | 0.75 ns | 0.59 ns | 0.44 ns | 0.23 | Fluorescence lifetime τ ([1]; DMSO standard solutions): 810 ps; Fluorescence lifetime τ ([1]; Glycerol, 20° C., two-photon excitation 620-630 nm, ne = non-exponential): 1.07 ns; Fluorescence lifetime ([1]; glycerol): 1070 ps; Fluorescence lifetime ([1]; hexane): 740 ps; Fluorescence lifetime ([1]; methanol): 440 ps; Fluorescence quantum yield φ ([4]; DMSO): 0.29; Fluorescence quantum yield φ ([4]; EtOH): 0.17; Fluorescence quantum yield φ ([4]; Ethylene glycol): 0.29; Fluorescence quantum yield φ ([4]; Glycerol): 0.42; Fluorescence quantum yield φ ([4]; Hexane): 0.31; Fluorescence quantum yield φ ([4]; MeCN): 0.2; Fluorescence quantum yield φ ([4]; MeOH): 0.15; Accumulation relative to the extracellular concentration ([5]; HUVEC endothelial cells): up to 200 times; Intracellular concentration in many parts of the cell [5, 13]: 500 µM; Intracellular concentration in the lipid droplets, peak [5, 13]: over 1 mM; Intracellular concentration as times that added to the surrounding medium ([5]; HUVEC, 5 μM in medium, many parts of the cell): 100 times; Intracellular distribution ([5]; HUVEC, 5 μM, 37° C., 60 min): taken up into the cytoplasmic region of the cell, but excluded from the cell nucleus
3 | COc1cc(/C=C/c2ccc(N(C)C)cc2)cc(OC)c1OC [E-DMAC, (E)-1-(3′,4′,5′-Trimethoxyphenyl)-2-(4″-dimethylamino-phenyl)ethene] | 0.36 ns | 5.7±1.2 GM units | ne | ne | ne | 0.41 ns | ne | ne | 0.11 | –
